Experimental data from patent EP1637163A1, “Indicator of therapeutic compliance” (priority 2004, dated 2006).

Key:
[1] = design: species or system human; settings: in vivo
Procedure: (§1) As a first step to test the feasibility of this approach, a self-experiment was conducted by the inventors. The aim was to obtain first data on the effect size, the pharmacokinetic data in various body fluids, and the variability between subjects. Single, large doses of the following substances were ingested by the subjects: ^13C6-glucose (1 g, two subjects) ^15N-L-leucine (1 g, two subjects) ^15N3-L-arginine (250 mg, one subject) ^15N4-L-histidine (250 mg, one subject) Baseline and follow-up samples were taken from the following body fluids: blood, saliva, and urine. These samples were dried, milled, burned, and analysed by mass spectrometry. […] Samples of exhaled breath were taken until 3 days after ingestion and analysed by IR-spectroscopy for ^13C/^12C-ratios.
(§2) Blood: Appr. 4 ml of venous blood were drawn and given into a thoroughly cleaned glass vial. The sample was frozen immediately at -18°C and stored at this temperature. Saliva: Saliva samples were obtained by letting the volunteers chew on "salivettes", i. e., cotton swabs, which were then centrifuged to extract saliva. The saliva samples were frozen at -18°C and stored at this temperature. […]
(§3) The isotopic composition was measured and compared to a standard. […] Samples of exhaled breath were taken until 3 days after ingestion and analysed by IR-spectroscopy for ^13C/^12C-ratios.

[2] = Saliva test after ingestion of labelled substance (isotope content by mass spectrometry, δ-values); format: in vivo, human
Procedure: as §1, §2, §3

[3] = design: species or system human; settings: in vivo; remark: listed apart in the source
Procedure: As a first step to test the feasibility of this approach, a self-experiment was conducted by the inventors. The aim was to obtain first data on the effect size, the pharmacokinetic data in various body fluids, and the variability between subjects. Single, large doses of the following substances were ingested by the subjects: ^13C6-glucose (1 g, two subjects) ^15N-L-leucine (1 g, two subjects) ^15N3-L-arginine (250 mg, one subject) ^15N4-L-histidine (250 mg, one subject) Baseline and follow-up samples were taken from the following body fluids: blood, saliva, and urine. These samples were dried, milled, burned, and analysed by mass spectrometry. The results are given as δ-values, which are defined as follows: [formula] where rsample is the ratio of ^15N [^13C] over ^14N [[…]] in the sample, and rstandard is the ratio of ^15N [^13C] over ^14N [[…]] in a standard. Samples of exhaled breath were taken until 3 days after ingestion and analysed by IR-spectroscopy for ^13C/^12C-ratios. Glucose and leucine were ingested on day zero, while arginine and histidine were ingested on day 116.
Gas of the sample tubes was separated by freezing at -196°C (N2) and - 78°C(CO2), and let into a mass spectrometer (Finnigan Delta +XL) according to manufacturer's specifications. The isotopic composition was measured and compared to a standard. Results are given as δ-values, which are defined as follows: [formula] where rsample is the ratio of ^15N [^13C] over ^14N [[…]] in the sample, and rstandard is the ratio of ^15N [^13C] over ^14N [^13C] in a standard. Samples of exhaled breath were taken until 3 days after ingestion and analysed by IR-spectroscopy for ^13C/^12C-ratios. Glucose and leucine were ingested on day zero, while arginine and histidine were ingested on day 116.

[4] = Blood test after ingestion of labelled substance (isotope content by mass spectrometry, δ-values); format: in vivo, human
Procedure: as §1
Blood: Appr. 4 ml of venous blood were drawn and given into a thoroughly cleaned glass vial. The sample was frozen immediately at -18°C and stored at this temperature. Saliva: Saliva samples were obtained by letting the volunteers chew on "salivettes", i. e., cotton swabs, which were then centrifuged to extract saliva. The saliva samples were frozen at -18°C and stored at this temperature. Urine: Urine was given into glass vials and frozen and stored at -18°C. All samples were freezedried in vacuo at -70°C, and an appropriate amount of the resulting powder was given into Supremax glass tubes, together with an appropriate amount of copper oxide, evacuated, and sealed.
as §3

Row | SMILES | δ-^15N-values of urine: time after which the figure slowly returns to baseline values [1] | period after which δ-values in saliva are similar to urine-values ([2]; in vivo) | relative amount of ^13C in urine: drop to normal levels [1] [days] | effect size in saliva samples ([2]; saliva, single 1 g dose ingested, two subjects, relatively large variation) | period over which measurements of ^13CO2 in expired breath are sensitive [3] [days] | period over which the relative content of ^13C (DOB = delta over baseline) rises [3] [h] | relative content of ^13C returns to baseline values [3] [h] | remaining effect size ([4]; blood, after about 50 hours after ingestion, disturbed by large variations) | marked increase in ^13C-content (time after ingestion) ([4]; in vivo) | rapid decrease of ^13C-content until (time after ingestion) ([4]; in vivo)
1 | CC(C)C[C@H]([15NH2])C(=O)O [^15N-L-leucine] | approximately 5 days | ca. 1 week | – | – | – | – | – | – | – | –
2 | O[13CH2][13C@H]1O[13CH](O)[13C@H](O)[13C@@H](O)[13C@@H]1O (stereo partly shown) [^13C6-glucose] | – | – | ≤ 5 | no significant effect size | 1 to 2 | 1 to 3 | 36 to 48 | small | approximately 6 hours | about 50 hours
